Assay results: US20150329498A1, “IRAK INHIBITORS AND USES THEREOF” (Nimbus Iris, Inc., priority 2014, published 2015)

Legend:
[1] = system: TNFα production in THP-1 cells; experiment: LPS induced TNFα production assay in THP-1 cells; format: cell-based; details: Homo sapiens, 300 ng/mL LPS, measured at 5 hours
Description: (§1) Provided compounds were also assayed in an LPS (Lipopolysaccharide) or R848 (TLR-7 agonist) induced cytokine (TNFα and IL8) production assay in THP-1 cells, human white blood cells (hWBC), and human whole blood. The exemplary protocol for this assay in THP-1 cells was as follows below.
(§2) THP-1 cells from ATCC (TIB-202) were cultured in RPMI Medium 1640 (Invitrogen, Cat No. A10491-01), 10% fetal bovine serum (Invitrogen, Cat No. 10099141, Lot No. 8172882) containing 100 U/mL Penicillin, 100 μg/mL streptomycin (Invitrogen, Cat No. 15140-122), and 50 uM 2-Mercaptoethanol (Invitrogen, Cat No. 21985023). LPS-EK ultra pure (Invivogen, Cat No. tlrl-peklps) was used to induce IL8 and TNFα production, that was detected in the cell culture supernatant by IL8 HTRF kit (Cisbio, Cat No. 62IL8PEB) and TNFα HTRF kit (Cisbio, Cat No. 62TNFPEB), as per manufacturer instructions. Cells were cultured in 96 well assay plates at 100,000 cells per well, and compounds diluted in final 0.3% DMSO were pre-incubated with cells for 1 hour prior to stimulation with 300 ng/mL LPS. Cytokine production in cell supernatant was measured at 5 hours for TNFα production, and at 16 hours for IL8 production and assessment of cell viability.
(§3) The compound numbers correspond to the compound numbers in Table 1. Compounds having an activity designated as “A” provided an IC50≦0.5 μM; compounds having an activity designated as “B” provided an IC50 of 0.5-5.0 μM; compounds having an activity designated as “C” provided an IC50>5.0 μM. “NA” stands for “not assayed.”

[2] = system: IL8 production in THP-1 cells; experiment: LPS induced IL8 production assay in THP-1 cells; format: cell-based; details: Homo sapiens, 300 ng/mL LPS, measured at 16 hours
Description: as §1, §2, §3

IRAK4 = target: T1, IRAK4 (Homo sapiens, UniProt Q9NWZ3); experiment: IRAK-4 activity inhibition assay (Caliper); format: biochemical; details: 3.5 nM IRAK4, 1.5 μM Peptide 8, 37 μM ATP
T1 construct: purchased CARNA Bioscience 09-145
T1 sequence (Q9NWZ3 1-460): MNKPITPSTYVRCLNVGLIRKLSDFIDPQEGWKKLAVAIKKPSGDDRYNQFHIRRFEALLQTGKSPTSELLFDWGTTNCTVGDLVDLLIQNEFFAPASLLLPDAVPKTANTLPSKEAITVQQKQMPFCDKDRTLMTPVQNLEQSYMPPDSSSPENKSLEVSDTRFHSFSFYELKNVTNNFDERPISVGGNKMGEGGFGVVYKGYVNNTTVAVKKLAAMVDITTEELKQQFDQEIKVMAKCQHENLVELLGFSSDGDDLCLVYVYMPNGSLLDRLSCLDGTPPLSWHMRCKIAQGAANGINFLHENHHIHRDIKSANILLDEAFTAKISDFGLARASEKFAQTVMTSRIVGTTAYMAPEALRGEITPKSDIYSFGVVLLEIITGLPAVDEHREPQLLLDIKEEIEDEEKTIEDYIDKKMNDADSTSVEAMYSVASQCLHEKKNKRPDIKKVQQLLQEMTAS
Description: A 1x kinase base buffer was prepared from 50 mM HEPES, pH 7.5 and 0.0015% Brij-35. A stop buffer was prepared from 100 mM HEPES, pH 7.5, 0.015% Brij-35, 0.2% Coating Reagent #3, and 50 mM EDTA.
Test compound was diluted to 50× of the final desired highest inhibitor concentration in reaction by 100% DMSO. 100 ul of this compound dilution was transferred to a well in a 96-well plate. For example, if desired highest inhibitor concentration in IC50 determination is 100 uM, then prepare 5000 uM of compound DMSO solution in this step.
Test compound was serially diluted by transferring 30 μl to 60 μl of 100% DMSO in the next well and so forth for a total of 10 concentrations. 100 μl of 100% DMSO was added to two empty wells for no compound control and no enzyme control in the same 96-well plate.
A new 96-well plate was marked as intermediate plate. 5 μl of compound serial dilution was transferred from source plate to the corresponding wells of the intermediate plate. 45 μl of 1x kinase base buffer (KB buffer) was added to each well of the intermediate plate. The intermediate plate was placed for 10 min on a shaker.
5 μl of each well was transferred from the 96-well intermediate plate to a 384-well plate in duplicates. For example, A1 of the 96-well plate is transferred to A1 and A2 of the 384-well plate. A2 of the 96-well plate is transferred to A3 and A4 of the 384-well plate, and so on.
IRAK4 and DTT in 1x kinase base buffer was added. The 2.5x enzyme mix contained 8.8 nM IRAK4 and 5 mM DTT.
Peptide 8, ATP, MgCl2 and MnCl2 were added in the 1x kinase base buffer. The 2.5x peptide mix contained 3.75 μM peptide 8, 92.5 μM ATP, 12.5 mM MgCl2 and 2.5 mM MnCl2.
Assay plate already contained 5 μl of compound in 10% DMSO. Added 10 μl of 2.5x enzyme solution to each well of the 384-well assay plate, except no enzyme control wells. The final concentration of IRAK4 in reaction was 3.5 nM. Added 10 μl of 1x kinase base buffer to no enzyme control wells in the assay plate. Incubated at room temperature for 10 min.
Added 10 μl of 2.5x peptide solution to each well of the 384-well assay plate. The final concentration of Peptide 8 and ATP was 1.5 μM and 37 μM, respectively. Incubated at for 40 minutes. Added 25 μl of stop buffer to stop reaction. Collected data on Caliper.
Copied conversion % data from Caliper program. Converted conversion % values to percent inhibition values. Percent inhibition=(max−conversion %)/(max−min)*100, where “max” means the conversion % of DMSO control and “min” means the conversion % of no enzyme control.
The compound numbers correspond to the compound numbers in Table 1. Compounds having an activity designated as “A” provided an IC50≦5 μM; compounds having an activity designated as “B” provided an IC50 of 5-20 μM; compounds having an activity designated as “C” provided an IC50 of 20-50 μM; and compounds having an activity designated as “D” provided an IC50≧50 μM. “NA” stands for “not assayed.”

SMILES | IC50 [1] | IC50 [2] | IC50 (IRAK4)
Clc1ccc2ncnc(N[C@H]3CC[C@H](N4CCOCC4)CC3)c2c1 [Compound I-26, 6-chloro-N-((1r,4r)-4-morpholinocyclohexyl)quinazolin-4-amine] | ≤ 0.5 µM | ≤ 0.5 µM | ≤ 5 µM
Clc1ccc2ncnc(N[C@H]3CC[C@H](N4CCC5(CC4)COC5)CC3)c2c1 [Compound I-27, N-((1r,4r)-4-(2-oxa-7-azaspiro[3.5]nonan-7-yl)cyclohexyl)-6-chloroquinazolin-4-amine] | ≤ 0.5 µM | ≤ 0.5 µM | ≤ 5 µM
N#Cc1ccc2nc(Nc3cnn(C4CCC(O)CC4)c3)nc(N[C@H]3CC[C@H](N4CCOCC4)CC3)c2c1 (stereo partly drawn) [Compound I-28, 2-((1-(4-hydroxycyclohexyl)-1H-pyrazol-4-yl)amino)-4-(((1r,4r)-4-morpholinocyclohexyl)amino)quinazoline-6-carbonitrile] | ≤ 0.5 µM | ≤ 0.5 µM | ≤ 5 µM
c1nc(N[C@H]2CC[C@H](N3CCOCC3)CC2)c2c3c(ccc2n1)CCC3 [Compound I-29, N-((1r,4r)-4-morpholinocyclohexyl)-8,9-dihydro-7H-cyclo-penta[f]quinazolin-1-amine] | 0.5 to 5 µM | ≤ 0.5 µM | ≤ 5 µM
OCC#Cc1ccc2ncnc(N[C@H]3CC[C@H](N4CCOCC4)CC3)c2c1 [Compound I-30, 3-(4-(((1r,4r)-4-morpholinocyclohexyl)amino)quinazolin-6-yl)prop-2-yn-1-ol] | ≤ 0.5 µM | ≤ 0.5 µM | ≤ 5 µM
c1nc(O[C@H]2CC[C@H](N3CCOCC3)CC2)c2c3c(ccc2n1)CCC3 [Compound I-31, 4-((1r,4r)-4-((8,9-dihydro-7H-cyclopenta[f]quinazolin-1-yl)oxy)cyclohexyl)morpholine] | 0.5 to 5 µM | ≤ 0.5 µM | ≤ 5 µM
N#CCc1ccc2ncnc(N[C@H]3CC[C@H](N4CCOCC4)CC3)c2c1 [Compound I-34, 2-(4-(((1r,4r)-4-morpholinocyclohexyl)amino)-quinazolin-6-yl)acetonitrile] | 0.5 to 5 µM | ≤ 0.5 µM | ≤ 5 µM
C#Cc1ccc2ncnc(N[C@H]3CC[C@H](N4CCOCC4)CC3)c2c1 [Compound I-35, 6-ethynyl-N-((1r,4r)-4-morpholinocyclohexyl)quinazolin-4-amine] | 0.5 to 5 µM | ≤ 0.5 µM | ≤ 5 µM
Clc1ccc2ncnc(N[C@H]3CC[C@H](N4CCC5(CC4)CC5)CC3)c2c1 [Compound I-36, N-((1r,4r)-4-(6-azaspiro[2.5]octan-6-yl)cyclohexyl)-6-chloro-quinazolin-4-amine] | ≤ 0.5 µM | 0.5 to 5 µM | ≤ 5 µM
C=Cc1ccc2ncnc(N[C@H]3CC[C@H](N4CCC5(CC4)CC5)CC3)c2c1 [Compound I-38, N-((1r,4r)-4-(6-azaspiro[2.5]octan-6-yl)cyclohexyl)-6-vinyl-quinazolin-4-amine] | ≤ 0.5 µM | ≤ 0.5 µM | ≤ 5 µM
CCc1ccc2ncnc(N[C@H]3CC[C@H](N4CCC5(CC4)CC5)CC3)c2c1 [Compound I-39, N-((1r,4r)-4-(6-azaspiro[2.5]octan-6-yl)cyclohexyl)-6-ethyl-quinazolin-4-amine] | ≤ 0.5 µM | ≤ 0.5 µM | ≤ 5 µM
OCCc1ccc2ncnc(N[C@H]3CC[C@H](N4CCOCC4)CC3)c2c1 [Compound I-40, 2-(4-(((1r,4r)-4-morpholinocyclohexyl)amino)quinazolin-6-yl)ethanol] | 0.5 to 5 µM | ≤ 0.5 µM | ≤ 5 µM
OC/C=C/c1ccc2ncnc(N[C@H]3CC[C@H](N4CCOCC4)CC3)c2c1 [Compound I-41, (E)-3-(4-(((1r,4r)-4-morpholinocyclohexyl)amino)quinazolin-6-yl)prop-2-en-1-ol] | ≤ 0.5 µM | ≤ 0.5 µM | ≤ 5 µM
OCC#Cc1ccc2ncnc(N[C@H]3CC[C@H](N4CCC5(CC4)CC5)CC3)c2c1 [Compound I-44, 3-(4-(((1r,4r)-4-(6-azaspiro[2.5]octan-6-yl)cyclohexyl)amino)-quinazolin-6-yl)prop-2-yn-1-ol] | ≤ 0.5 µM | ≤ 0.5 µM | ≤ 5 µM
OCCCc1ccc2ncnc(N[C@H]3CC[C@H](N4CCOCC4)CC3)c2c1 [Compound I-46, 3-(4-(((1r,4r)-4-morpholinocyclohexyl)amino)quinazolin-6-yl)propan-1-ol] | ≤ 0.5 µM | ≤ 0.5 µM | ≤ 5 µM
N#Cc1ccc2nccc(N[C@H]3CC[C@H](N4CCOCC4)CC3)c2c1 [Compound I-47, 4-(((1r,4r)-4-morpholinocyclohexyl)amino)quinoline-6-carbo-nitrile] | 0.5 to 5 µM | ≤ 0.5 µM | ≤ 5 µM
N#CCc1ccc2ncnc(N[C@H]3CC[C@H](N4CCC5(CC4)CC5)CC3)c2c1 [Compound I-52, 2-(4-(((1r,4r)-4-(6-azaspiro[2.5]octan-6-yl)cyclohexyl)amino)quin-azolin-6-yl)acetonitrile] | ≤ 0.5 µM | ≤ 0.5 µM | ≤ 5 µM
CN(C)[C@H]1CC[C@H](Nc2ncnc3ccc(CC#N)cc23)CC1 [Compound I-53, 2-(4-(((1r,4r)-4-(dimethylamino)cyclohexyl)amino)quinazolin-6-yl)acetonitrile] | 0.5 to 5 µM | ≤ 0.5 µM | ≤ 5 µM
NC(=O)/C=C/c1ccc2ncnc(N[C@H]3CC[C@H](N4CCOCC4)CC3)c2c1 [Compound I-54, (E)-3-(4-(((1r,4r)-4-morpholinocyclohexyl)amino)quinazolin-6-yl)acrylamide] | 0.5 to 5 µM | > 5 µM | ≤ 5 µM
Cc1cc(Nc2nc(N[C@H]3CC[C@H](N4CCOCC4)CC3)c3cc(Br)ccc3n2)sn1 [Compound I-56, 6-bromo-N2-(3-methylisothiazol-5-yl)-N4-((1r,4r)-4-morpholin-ocyclohexyl)quinazoline-2,4-diamine] | ≤ 0.5 µM | ≤ 0.5 µM | ≤ 5 µM
